Eleven molecules from ChEMBL document CHEMBL1201862, “PubChem BioAssay data set” (2004) can be followed below.

Test systems include 786-0; CAKI-1; UO-31; LOX IMVI; SK-MEL-2; SW-620; COLO 205; IGROV-1; OVCAR-8; HL-60; M14; A549; OVCAR-4; DMS-273; SK-MEL-5; NCI-H23; EKVX; SNB-75; K562; NCI/ADR-RES.
Test in all cases: DTP human tumour cell line panel, 48 h

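A five-concentration, 48-hour dose response in 96-well plates underlies each endpoint, interpolated linearly between surrounding concentrations. The concentration for 50% growth inhibition is given as GI50.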 Activity calls are given as the source filed them. Rule as the data show it: active = GI50 up to about 1.1 µM and inactive = higher. Where only a bound is given, the exact number is not on record here.

Turning to `O=C(CCC(=O)Nc1ccccc1C(F)(F)F)N/N=C1\C(=N\NC(=O)CCC(=O)Nc2ccccc2C(F)(F)F)C(c2ccc3c(c2)OCO3)Oc2ccccc21` (stereo not given), the GI50 with 786-0 was 8.63 µM (inactive); in the assay on CAKI-1, 10.1 µM (inactive); in the assay with UO-31 it was 5.64 µM (inactive); in the assay with LOX IMVI, 6.28 µM (inactive); with SK-MEL-2 it was > 31.9 µM (inactive); in the assay with SW-620, 6.22 µM (inactive). In addition, the GI50 with COLO 205 is > 100 µM (inactive); in the assay on IGROV-1, 16.9 µM (inactive); in the assay on OVCAR-8, 7.87 µM (inactive); in the assay on HL-60, 3.4 µM (inactive); in the assay on M14, > 100 µM (inactive); in the assay on A549, 7.16 µM (inactive). In addition, the GI50 was 9.95 µM (inactive) in the assay on OVCAR-4; 5.58 µM (inactive) in the assay with DMS-273; 7.74 µM (inactive) with SK-MEL-5; 22.8 µM (inactive) in the assay on NCI-H23; 9.79 µM (inactive) in the assay with EKVX; 10 µM (inactive) in the assay on SNB-75. Also, in the assay with K562, the GI50 was 3.54 µM (inactive).

`C=C1C(=O)C[C@@]23CCC[C@@]12CC(O)C3` (stereo not given in full): the GI50 in the assay on CAKI-1 is > 10 µM (inactive); with UO-31, 37.6 µM (inactive); in the assay with LOX IMVI it was 14.6 µM (inactive); with NCI/ADR-RES it was 13.4 µM (inactive); in the assay on SK-MEL-2, 24.6 µM (inactive); in the assay with SW-620, 18.7 µM (inactive). The GI50 is 21.3 µM (inactive) with COLO 205; 3.93 µM (inactive) with IGROV-1; 32.7 µM (inactive) in the assay with OVCAR-8; 19.5 µM (inactive) in the assay with HL-60; 30.3 µM (inactive) in the assay with A549; 18.6 µM (inactive) with OVCAR-4. Also, the GI50 in the assay on DMS-273 was 17.3 µM (inactive); in the assay with SK-MEL-5, 10.5 µM (inactive); with NCI-H23 it was 21.8 µM (inactive); with EKVX it was 27.3 µM (inactive); in the assay on SNB-75, 18.4 µM (inactive); with K562, 24.5 µM (inactive).

Regarding `[N-]=[N+]=CC(=O)OCC(N)C(=O)O` (stereo not given), the GI50 in the assay with CAKI-1 was 5.85 µM (inactive); with UO-31, 2.61 µM (inactive); with LOX IMVI it was 0.205 µM (active); with NCI/ADR-RES, 2.95 µM (inactive); in the assay with SK-MEL-2, 3.28 µM (inactive); in the assay with SW-620, 0.437 µM (active). Also, the GI50 is 0.269 µM (active) with COLO 205; 1.15 µM (inactive) in the assay with IGROV-1; 1.32 µM (inactive) with OVCAR-8; 0.448 µM (active) with HL-60; 0.557 µM (active) in the assay on A549; 14.1 µM (inactive) in the assay with OVCAR-4. For the same molecule, the 50% growth inhibitory concentration (GI50) in the assay on DMS-273 is 0.245 µM (active); in the assay with SK-MEL-5, 0.847 µM (active); in the assay on NCI-H23, 1.04 µM (active); in the assay with EKVX it was 0.413 µM (active); in the assay on SNB-75, 21.3 µM (inactive); in the assay on K562 it was 0.286 µM (active).

With `CCOC(=O)c1ccc(N[C@@H]2c3cc4c(cc3C(c3cc(OC)c(O)c(OC)c3)[C@H]3C(=O)OCC32)OCO4)cc1O` (stereo not given in full), the GI50 was 0.331 µM (active) in the assay with CAKI-1; 0.34 µM (active) with UO-31; 0.185 µM (active) with LOX IMVI; 4.43 µM (inactive) in the assay on NCI/ADR-RES; 0.809 µM (active) in the assay with SK-MEL-2; 0.942 µM (active) in the assay on SW-620. Moreover, the GI50 in the assay on COLO 205 was 1.18 µM (inactive); in the assay with IGROV-1, 2.68 µM (inactive); in the assay with OVCAR-8, 1.77 µM (inactive); in the assay on HL-60, 0.133 µM (active); in the assay with A549, 0.0946 µM (active); with OVCAR-4 it was 7.69 µM (inactive). The GI50 was 0.299 µM (active) in the assay on DMS-273; 1.19 µM (inactive) in the assay with SK-MEL-5; 0.9 µM (active) in the assay with NCI-H23; 2.25 µM (inactive) with EKVX; 0.548 µM (active) in the assay with SNB-75; 0.78 µM (active) in the assay with K562.

With `CC(=O)OCC1OC(n2cc(F)c(=O)[nH]c2=O)C(NC(=O)OCc2ccccc2)C(OC(C)=O)C1OC(C)=O` (stereo not given), the GI50 in the assay with CAKI-1, in the assay with UO-31, in the assay with LOX IMVI, with NCI/ADR-RES, with SK-MEL-2 and in the assay with SW-620 was > 100 µM (inactive) each time. Besides, the GI50 with IGROV-1, with OVCAR-8, with HL-60, in the assay on A549, with OVCAR-4 and with DMS-273 was > 100 µM (inactive) each time. For the same molecule, the GI50 in the assay on SK-MEL-5, in the assay with NCI-H23, with EKVX, with SNB-75 and with K562 was > 100 µM (inactive) throughout.

In the case of `Nc1ncnc2c1ncn2[C@@H]1O[C@H](COP(=O)(O)O)[C@@H](O)[C@@H]1O`, the GI50 in the assay on CAKI-1 was > 50 µM (inactive); in the assay with UO-31, > 50 µM (inactive); in the assay on LOX IMVI, > 50 µM (inactive); in the assay on NCI/ADR-RES, > 24.5 µM (inactive); in the assay on SK-MEL-2, > 50 µM (inactive); with SW-620, > 50 µM (inactive). Moreover, the GI50 in the assay on COLO 205 is > 50 µM (inactive); in the assay with IGROV-1, > 50 µM (inactive); in the assay with OVCAR-8, 12.9 µM (inactive); with HL-60, 14.6 µM (inactive); in the assay with A549, > 50 µM (inactive); with OVCAR-4 it was > 50 µM (inactive). The GI50 in the assay on DMS-273, with SK-MEL-5, with NCI-H23, in the assay with EKVX, in the assay with SNB-75 and with K562 was > 50 µM (inactive) each time.

`CCCCCCCCCCC(C)CCCCCCC(=O)O` (stereo not given): the GI50 with 786-0, with CAKI-1, with UO-31, in the assay with LOX IMVI, in the assay with SK-MEL-2 and in the assay with SW-620 was > 100 µM (inactive) throughout. Moreover, the GI50 in the assay on COLO 205, in the assay with IGROV-1, in the assay on OVCAR-8, with HL-60, in the assay on M14 and in the assay on A549 was > 100 µM (inactive) throughout. The GI50 with OVCAR-4, with DMS-273, with SK-MEL-5, in the assay with NCI-H23, with EKVX and in the assay on SNB-75 was > 100 µM (inactive) throughout. Moreover, in the assay with K562, the GI50 is > 100 µM (inactive).

Consider `CC1(C)CCc2cc3c(cc2O1)OC(C)(C)CC3=O`, for which the GI50 in the assay with CAKI-1 is 52.5 µM (inactive); with UO-31, 40.3 µM (inactive); in the assay on LOX IMVI, > 100 µM (inactive); in the assay with SK-MEL-2, > 100 µM (inactive); in the assay on SW-620, > 100 µM (inactive); in the assay on COLO 205, > 100 µM (inactive). The GI50 is > 100 µM (inactive) in the assay on IGROV-1; > 100 µM (inactive) with OVCAR-8; 23.4 µM (inactive) in the assay with HL-60; > 100 µM (inactive) in the assay on M14; 75.2 µM (inactive) in the assay with A549; 62.8 µM (inactive) with OVCAR-4. Also, the GI50 in the assay on DMS-273 is 71.3 µM (inactive); in the assay with SK-MEL-5, 21.1 µM (inactive); in the assay with NCI-H23 it was 91.6 µM (inactive); with EKVX it was 93.5 µM (inactive); in the assay with SNB-75, 70.8 µM (inactive); in the assay with K562, 44.6 µM (inactive).

On to `COc1ccc(C23C(=O)c4ccccc4N2O[C@H]2C(=O)N(c4ccccc4)C(=O)[C@H]23)cc1` (stereo not given in full), for which the GI50 in the assay with 786-0, with CAKI-1, in the assay with UO-31, in the assay on LOX IMVI, in the assay with SK-MEL-2 and with SW-620 was > 100 µM (inactive) throughout. For the same molecule, the GI50 in the assay on COLO 205, in the assay on IGROV-1, with OVCAR-8, in the assay on HL-60, with M14 and with A549 was > 100 µM (inactive) throughout. In addition, the GI50 with OVCAR-4, with DMS-273, with SK-MEL-5, in the assay with NCI-H23, in the assay with EKVX and in the assay with SNB-75 was > 100 µM (inactive) in each case. For the same molecule, the GI50 in the assay on K562 was > 100 µM (inactive).

With `Nc1ccc2[nH]c3c(-c4ccccc4)nccc3c2c1`, the GI50 with UO-31 was 37.7 µM (inactive); in the assay on LOX IMVI it was 28.9 µM (inactive); with NCI/ADR-RES it was 24 µM (inactive); with SK-MEL-2, > 100 µM (inactive); in the assay with SW-620, 65.8 µM (inactive); in the assay with COLO 205, 44 µM (inactive). Further, the GI50 in the assay on IGROV-1 was 57.4 µM (inactive); with OVCAR-8 it was 72.3 µM (inactive); with HL-60, 12 µM (inactive); with A549, 48.9 µM (inactive); in the assay with OVCAR-4, 23.7 µM (inactive); with DMS-273 it was 53.3 µM (inactive). Also, the GI50 with SK-MEL-5 was 19.8 µM (inactive); with NCI-H23, > 73.6 µM (inactive); in the assay on EKVX it was > 100 µM (inactive); in the assay on SNB-75, 29.6 µM (inactive); in the assay on K562, 24.4 µM (inactive).

As for `O=C(O)c1cc2c3c(c1)[C@H]1C=CC[C@H]1CN3CC1CC=CC21` (stereo not given in full), the GI50 with 786-0, with CAKI-1, with UO-31, with LOX IMVI, in the assay on SK-MEL-2 and with SW-620 was > 100 µM (inactive) in each case. Also, the GI50 in the assay with COLO 205, with IGROV-1, with OVCAR-8, in the assay with HL-60, with M14 and with A549 was > 100 µM (inactive) each time. The GI50 with OVCAR-4, with DMS-273, with SK-MEL-5, in the assay with NCI-H23, in the assay on EKVX and in the assay with SNB-75 was > 100 µM (inactive) each time. For the same molecule, the GI50 with K562 was > 100 µM (inactive).

By GI50 is commonly meant the concentration that inhibits growth by half.
